# Source: BindingDB's records for patent WO2022091056 (NOVARTIS AG, 2022)
# Target: Interleukin-17 receptor A/ (Homo sapiens, UniProt Q16552)
# Assay: Human IL-17A x IL-17RA TR-FRET assay
# Method: The final total assay volume is 10 µL. […] The neutral control (NC) contains all the assay components, but DMSO instead of test compound. […] The fluorescence values for emission at 615 nm and 665 nm are loaded to the evaluation software Helios.
# Chain of Interleukin-17 receptor A/ (Q16552 whole entry): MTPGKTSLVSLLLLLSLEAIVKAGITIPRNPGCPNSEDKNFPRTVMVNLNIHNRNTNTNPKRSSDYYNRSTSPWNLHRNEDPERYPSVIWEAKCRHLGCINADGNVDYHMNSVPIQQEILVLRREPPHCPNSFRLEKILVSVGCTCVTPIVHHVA
# Chain of Interleukin-17 receptor A/ (Q96F46 whole entry, further chain): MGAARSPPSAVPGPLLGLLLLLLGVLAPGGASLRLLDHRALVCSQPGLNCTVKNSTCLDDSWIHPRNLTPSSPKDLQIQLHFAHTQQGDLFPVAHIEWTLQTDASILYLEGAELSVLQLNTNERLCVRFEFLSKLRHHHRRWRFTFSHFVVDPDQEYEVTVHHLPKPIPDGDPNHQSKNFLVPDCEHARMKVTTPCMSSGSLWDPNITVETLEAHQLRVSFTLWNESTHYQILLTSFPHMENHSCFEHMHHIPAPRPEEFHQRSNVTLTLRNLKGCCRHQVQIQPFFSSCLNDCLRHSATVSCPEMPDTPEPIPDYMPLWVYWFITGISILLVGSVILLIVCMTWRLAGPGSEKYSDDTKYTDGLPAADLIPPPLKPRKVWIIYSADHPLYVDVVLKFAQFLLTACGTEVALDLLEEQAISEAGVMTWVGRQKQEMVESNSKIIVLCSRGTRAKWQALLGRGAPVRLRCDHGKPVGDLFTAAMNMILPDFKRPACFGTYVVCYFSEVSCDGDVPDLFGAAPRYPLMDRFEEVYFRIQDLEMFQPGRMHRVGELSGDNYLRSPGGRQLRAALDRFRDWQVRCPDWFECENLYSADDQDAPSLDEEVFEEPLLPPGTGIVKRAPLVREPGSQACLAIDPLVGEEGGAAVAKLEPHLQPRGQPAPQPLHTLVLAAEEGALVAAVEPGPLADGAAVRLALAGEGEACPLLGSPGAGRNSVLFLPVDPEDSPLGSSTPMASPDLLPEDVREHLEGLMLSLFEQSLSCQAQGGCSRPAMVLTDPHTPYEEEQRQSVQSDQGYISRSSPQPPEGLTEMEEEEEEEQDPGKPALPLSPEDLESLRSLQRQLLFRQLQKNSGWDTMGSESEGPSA
row,Compound,IC50
1,"Cc1nccc(Cl)c1-c1ccc(NC(=O)[C@@H](NC(=O)c2ccnn2C)C2CCCCC2)cc1F [WO2022091056, Example 137]",3790 nM
2,"Cc1c(-c2ccc(NC(=O)[C@@H](NC(=O)c3ccnn3C)C3CCCCC3)cc2F)ccc[n+]1[O-] [WO2022091056, Example 83]",1980 nM
3,"Cc1c[n+]([O-])cc(C)c1-c1ccc(NC(=O)[C@@H](NC(=O)c2ccnn2C)C2CCCCC2)cc1 [WO2022091056, Example 97]",1730 nM

# Now those with a lower IC50, led by results:
row,IC50,Compound
1,918 nM,"Cc1cc[n+]([O-])c(C)c1-c1ccc(NC(=O)[C@@H](NC(=O)c2conc2CN)C2CCCCC2)cc1 [WO2022091056, Example 79]"
2,23 nM,"Cc1c(-c2ccc(NC(=O)[C@@H](NC(=O)c3ccnn3C)[C@H]3CCCC(F)(F)C3)cc2F)c(Cl)cc[n+]1[O-] [WO2022091056, Example 110]"
